Experimental data: the CheMixHub viscosity set

Test: xn = mol fraction of the nth substance listed

CCOC(=O)CCl + CCCCCCCCCC
viscosity [mPa·s], 101.33 kPa
Conditions	x1 = 0.0992	x1 = 0.2037	x1 = 0.3031	x1 = 0.4005	x1 = 0.5016	x1 = 0.6027	x1 = 0.7039	x1 = 0.8019	x1 = 0.9008
298.15 K	0.821	0.825	0.828	0.843	0.869	0.897	0.93	0.969	1.024
303.15 K	0.761	0.766	0.767	0.78	0.801	0.827	0.854	0.885	0.946
308.15 K	0.707	0.713	0.719	0.725	0.742	0.765	0.791	0.829	0.872

CNC=O + CCC(=O)O
viscosity [mPa·s], 100 kPa
Conditions	x1 = 0.1115	x1 = 0.1858	x1 = 0.2665	x1 = 0.3545	x1 = 0.4849	x1 = 0.5942	x1 = 0.6734	x1 = 0.7583	x1 = 0.8978
303.15 K	1.025	1.069	1.116	1.169	1.248	1.315	1.365	1.42	1.514
308.15 K	0.9555	0.9958	1.039	1.087	1.159	1.22	1.265	1.315	1.399
313.15 K	0.8989	0.9358	0.9757	1.019	1.083	1.138	1.179	1.223	1.298
318.15 K	0.8503	0.8846	0.9214	0.9605	1.019	1.068	1.104	1.143	1.209

CCOC(=O)CCl + O=C1CCCCC1
viscosity [mPa·s], 101.3 kPa
Conditions	x1 = 0.1084	x1 = 0.2069	x1 = 0.306	x1 = 0.3993	x1 = 0.5032	x1 = 0.6002	x1 = 0.6945	x1 = 0.7947	x1 = 0.8975
298.15 K	1.745	1.604	1.493	1.403	1.352	1.283	1.23	1.191	1.144
303.15 K	1.595	1.47	1.376	1.298	1.244	1.184	1.139	1.101	1.058
308.15 K	1.444	1.336	1.259	1.19	1.135	1.087	1.047	1.011	0.972

CCOCCOCCOCC + ClC(Cl)(Cl)Cl
298.15 K, 101 kPa
Conditions	viscosity [mPa·s]
x1 = 0.0066	0.914
x1 = 0.0198	0.932
x1 = 0.0498	0.975
x1 = 0.0871	1.016
x1 = 0.127	1.051
x1 = 0.1781	1.093
x1 = 0.2051	1.115
x1 = 0.2354	1.134
x1 = 0.2797	1.161
x1 = 0.3206	1.18
x1 = 0.3371	1.189
x1 = 0.3614	1.202
x1 = 0.3768	1.21
x1 = 0.4165	1.225
x1 = 0.4689	1.241
x1 = 0.5264	1.257
x1 = 0.5651	1.269
x1 = 0.599	1.269
x1 = 0.6708	1.274
x1 = 0.715	1.286
x1 = 0.7943	1.293
x1 = 0.8245	1.283
x1 = 0.8784	1.282
x1 = 0.9126	1.282
x1 = 0.9535	1.273

CCCCCCCCCCCC[P+](CCCC)(CCCC)CCCC.N#Cc1ccc[n-]1 + OCCN(CCO)CCO
100 kPa
Conditions	viscosity [mPa·s]
293.15 K, x1 = 0.017	983
293.15 K, x1 = 0.244	974
293.15 K, x1 = 0.325	926
293.15 K, x1 = 0.431	828
293.15 K, x1 = 0.538	765
293.15 K, x1 = 0.755	675
298.15 K, x1 = 0.035	674
298.15 K, x1 = 0.054	682
298.15 K, x1 = 0.096	687
298.15 K, x1 = 0.121	686
298.15 K, x1 = 0.177	678

CCCCOCCO + NCCO
viscosity [mPa·s]
Conditions	293.15 K	298.15 K	303.15 K	308.15 K	313.15 K	318.15 K	323.15 K
101 kPa, x2 = 0.177	4.615	3.961	3.431	2.994	2.629	2.325	2.07
101 kPa, x2 = 0.453	8.081	6.718	5.65	4.799	4.115	3.559	3.101
101 kPa, x2 = 0.659	12.25	9.951	8.19	6.823	5.747	4.888	4.197
101 kPa, x2 = 0.819	16.81	13.39	10.84	8.898	7.395	6.212	5.271
101 kPa, x2 = 0.946	21.65	17.02	13.6	11.03	9.061	7.538	6.342
101.3 kPa, x2 = 0.457	8.08	6.72	5.65	4.8	4.11	3.56	3.1
101.3 kPa, x2 = 0.664	12.25	9.95	8.19	6.82	5.75	4.89	4.2

CCCCNCCO + O
100 kPa, x2 = 0.62
Conditions	viscosity [mPa·s]
293.15 K	29
303.15 K	16.7
313.15 K	10.3
323.15 K	6.73

CCOCCOCCOCC + CCCN
298.15 K, 101 kPa
Conditions	viscosity [mPa·s]
x1 = 0.005	0.361
x1 = 0.0106	0.367
x1 = 0.0197	0.379
x1 = 0.0413	0.402
x1 = 0.0623	0.423
x1 = 0.0897	0.451
x1 = 0.1329	0.498
x1 = 0.1762	0.538
x1 = 0.2138	0.572
x1 = 0.2434	0.6
x1 = 0.2446	0.603
x1 = 0.2849	0.636
x1 = 0.2887	0.64
x1 = 0.3251	0.672
x1 = 0.3686	0.709
x1 = 0.4053	0.737
x1 = 0.4615	0.786
x1 = 0.5261	0.848
x1 = 0.5564	0.875
x1 = 0.6025	0.919
x1 = 0.6358	0.951
x1 = 0.6749	0.988
x1 = 0.7261	1.038
x1 = 0.7852	1.09
x1 = 0.8437	1.152
x1 = 0.8917	1.201
x1 = 0.9396	1.235
x1 = 0.9698	1.248

CCCCCCBr + ClC(Cl)(Cl)Cl
101 kPa
Conditions	viscosity [mPa·s]
298.15 K, x1 = 0.1135	0.8881
298.15 K, x1 = 0.1518	0.8858
298.15 K, x1 = 0.1823	0.8835
298.15 K, x1 = 0.2319	0.8822
298.15 K, x1 = 0.3098	0.8844
298.15 K, x1 = 0.474	0.8943
298.15 K, x1 = 0.6449	0.9113
303.45 K, x1 = 0.0686	0.8329
303.45 K, x1 = 0.0894	0.8281
303.45 K, x1 = 0.1554	0.8277
303.45 K, x1 = 0.1952	0.8288
303.45 K, x1 = 0.2666	0.8328
303.45 K, x1 = 0.424	0.8436
303.45 K, x1 = 0.5955	0.8555
303.45 K, x1 = 0.7896	0.8708
313.35 K, x1 = 0.0691	0.7236
313.35 K, x1 = 0.0909	0.723
313.35 K, x1 = 0.1303	0.7251
313.35 K, x1 = 0.1568	0.7252
313.35 K, x1 = 0.1996	0.7259
313.35 K, x1 = 0.2736	0.7309
313.35 K, x1 = 0.5015	0.7462
313.35 K, x1 = 0.7896	0.7649
